Among the test systems are BT-549; SF-268; RPMI-8226; ACHN; SNB-19; TK-10; CCRF-CEM; HT-29; 786-0; HOP-92; HCT-116; Hs-578T; A498; MCF7; U-251; COLO 205; DU-145; SF-295; OVCAR-5.
Holding throughout (assay): NCI anticancer screen, dose series, 48 h

The values below come from ChEMBL document CHEMBL1201862, “PubChem BioAssay data set” (2004).

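Each compound was tested at five concentrations against cells in 96-well plates for 48 hours. GI50: concentration for 50% inhibition of growth.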 Activity calls are given as the source filed them. Rule as the data show it: active = GI50 up to about 1.1 µM and inactive = higher. Some results are limits rather than exact numbers.

Regarding `O=C(NCc1ccccc1)c1c(O)nc2ccccc2c1O`, the GI50 with BT-549, in the assay on SF-268, with RPMI-8226, in the assay with ACHN, in the assay on SNB-19 and with TK-10 was > 100 µM (inactive) in each case. Besides, the GI50 with CCRF-CEM was > 100 µM (inactive); in the assay on HT-29, > 100 µM (inactive); with 786-0 it was > 100 µM (inactive); with HOP-92, > 100 µM (inactive); in the assay with HCT-116 it was > 100 µM (inactive); with Hs-578T it was 40.7 µM (inactive). Further, the GI50 in the assay with A498, in the assay on MCF7, in the assay on U-251, with COLO 205, with DU-145 and with SF-295 was > 100 µM (inactive) throughout. In addition, the GI50 in the assay on OVCAR-5 was > 100 µM (inactive).

In the case of `CC1(C)OC[C@@]2([C@@H]3CC[C@@H](C3)C2(C)C)N1O`, the GI50 was > 100 µM (inactive) in the assay on BT-549; > 100 µM (inactive) in the assay on SF-268; 79.4 µM (inactive) with RPMI-8226; > 100 µM (inactive) in the assay with ACHN; > 100 µM (inactive) in the assay on SNB-19; > 100 µM (inactive) in the assay on TK-10. Moreover, the GI50 with CCRF-CEM was > 100 µM (inactive); in the assay on HT-29, > 100 µM (inactive); in the assay with 786-0, > 100 µM (inactive); in the assay on HOP-92, 27.4 µM (inactive); in the assay on HCT-116, > 100 µM (inactive); in the assay on Hs-578T it was > 100 µM (inactive). Also, the GI50 in the assay with A498 is > 100 µM (inactive); in the assay with MCF7 it was > 100 µM (inactive); in the assay with U-251 it was 88.9 µM (inactive); in the assay on COLO 205, > 100 µM (inactive); in the assay with DU-145, > 100 µM (inactive); in the assay on SF-295, > 100 µM (inactive). Besides, the GI50 in the assay on OVCAR-5 is > 100 µM (inactive).

As for `CC(NC1=CC(=O)c2ncccc2C1=O)C(O)c1ccccc1` (stereo not given), the GI50 in the assay with BT-549 was 1.85 µM (inactive); with SF-268, 12.2 µM (inactive); in the assay with RPMI-8226, 13.4 µM (inactive); with ACHN, 7 µM (inactive); with SNB-19, 6.35 µM (inactive); with TK-10, 38 µM (inactive). Besides, the GI50 in the assay on CCRF-CEM was 5.75 µM (inactive); in the assay with HT-29, 11.5 µM (inactive); in the assay with 786-0, 8.69 µM (inactive); with HOP-92, 13.2 µM (inactive); in the assay on HCT-116, 3.6 µM (inactive); with Hs-578T it was 4.2 µM (inactive). In addition, the GI50 was 13.4 µM (inactive) in the assay with A498; 2.31 µM (inactive) in the assay with MCF7; 2.61 µM (inactive) in the assay with U-251; 16 µM (inactive) in the assay on COLO 205; 6.22 µM (inactive) with DU-145; 3.32 µM (inactive) in the assay with SF-295. The GI50 in the assay on OVCAR-5 is 15.5 µM (inactive).

In the case of `CCOC(=O)c1nc2ccccc2nc1Oc1ccc(F)cc1`, the GI50 with BT-549 was > 100 µM (inactive); in the assay on SF-268, 55.8 µM (inactive); in the assay on RPMI-8226, > 100 µM (inactive); in the assay with ACHN it was 84.3 µM (inactive); with SNB-19, > 100 µM (inactive); with TK-10, > 100 µM (inactive). The GI50 is > 100 µM (inactive) in the assay with CCRF-CEM; > 100 µM (inactive) in the assay on HT-29; > 100 µM (inactive) in the assay with 786-0; 2.64 µM (inactive) with HOP-92; > 100 µM (inactive) with HCT-116; 39.3 µM (inactive) in the assay with Hs-578T. Besides, the GI50 is > 100 µM (inactive) in the assay with A498; > 100 µM (inactive) in the assay on MCF7; 69.2 µM (inactive) in the assay with U-251; > 100 µM (inactive) in the assay on COLO 205; > 100 µM (inactive) in the assay with DU-145; 70.6 µM (inactive) with SF-295. In addition, the GI50 in the assay with OVCAR-5 is > 100 µM (inactive).

Turning to `CC(=O)c1c(C)cc2cccc(OC3OC(CO)C(O)C(O)C3O)c2c1O.CC1OC(O)C(O)C(O)C1O` (stereo not given), the GI50 with BT-549, in the assay on SF-268, with RPMI-8226, with ACHN, in the assay on SNB-19 and in the assay with TK-10 was > 100 µM (inactive) each time. Further, the GI50 with CCRF-CEM, in the assay with HT-29, in the assay on 786-0, with HOP-92, with HCT-116 and with Hs-578T was > 100 µM (inactive) throughout. Further, the GI50 in the assay on A498, in the assay with MCF7, in the assay on U-251, in the assay with COLO 205, in the assay with DU-145 and in the assay with SF-295 was > 100 µM (inactive) each time. Also, the GI50 with OVCAR-5 is > 100 µM (inactive).

Turning to `Cc1ccc2c(c1)C(C1Cc3c(C)cccc3C1=O)OC2=O` (stereo not given), the GI50 in the assay on BT-549 was 86.5 µM (inactive); with SF-268, > 100 µM (inactive); in the assay on RPMI-8226 it was 63.2 µM (inactive); with ACHN it was > 100 µM (inactive); in the assay on SNB-19 it was > 100 µM (inactive); in the assay with TK-10, > 100 µM (inactive). In addition, the GI50 in the assay with CCRF-CEM was > 100 µM (inactive); in the assay on HT-29, 96.6 µM (inactive); in the assay with 786-0, > 100 µM (inactive); in the assay with HOP-92, > 100 µM (inactive); in the assay with HCT-116, > 100 µM (inactive); with Hs-578T it was > 100 µM (inactive). The GI50 in the assay with A498 was > 100 µM (inactive); in the assay on MCF7, > 100 µM (inactive); in the assay with U-251 it was 78 µM (inactive); in the assay on COLO 205, > 100 µM (inactive); in the assay on DU-145, > 100 µM (inactive); in the assay with SF-295, > 100 µM (inactive). Moreover, in the assay on OVCAR-5, the GI50 was > 100 µM (inactive).

As to `CCCn1c2ccccc2c2ccc3c(c21)C(=O)C=CC3=O`, the GI50 in the assay with BT-549 was 2.21 µM (inactive); with SF-268 it was > 6.12 µM (inactive); in the assay with RPMI-8226 it was 2.12 µM (inactive); in the assay with ACHN, 1.83 µM (inactive); with SNB-19, > 10 µM (inactive); in the assay on TK-10, 2.09 µM (inactive). Further, the GI50 was 0.204 µM (active) with CCRF-CEM; > 10 µM (inactive) in the assay with HT-29; 1.84 µM (inactive) with 786-0; 1.85 µM (inactive) in the assay on HOP-92; 1.63 µM (inactive) with HCT-116; 7.03 µM (inactive) with Hs-578T. Also, the GI50 in the assay on A498 was > 10 µM (inactive); in the assay with MCF7, 2.19 µM (inactive); in the assay with U-251, > 7.59 µM (inactive); with COLO 205 it was 2.39 µM (inactive); in the assay with DU-145, 9.79 µM (inactive); in the assay on SF-295, > 10 µM (inactive). The GI50 in the assay on OVCAR-5 was > 10 µM (inactive).

Take `COC12C=CC(C=C1C#N)CC2.COC12C=CC(CC1)CC2=O` (stereo not given): the GI50 with BT-549, with SF-268, in the assay on RPMI-8226, in the assay on ACHN, in the assay on SNB-19 and with TK-10 was > 100 µM (inactive) throughout. Moreover, the GI50 in the assay on CCRF-CEM, in the assay on HT-29, with 786-0, in the assay on HOP-92, in the assay with HCT-116 and in the assay with Hs-578T was > 100 µM (inactive) in each case. Also, the GI50 in the assay on A498, with MCF7, in the assay on U-251, in the assay on COLO 205, with DU-145 and in the assay with SF-295 was > 100 µM (inactive) throughout. The GI50 with OVCAR-5 is > 100 µM (inactive).

In the case of `O=c1c2ccccc2nc2sc(/N=C/C=C/c3ccccc3)nn12`, the GI50 in the assay with BT-549, with SF-268, in the assay with RPMI-8226, with ACHN, with SNB-19 and in the assay on TK-10 was > 100 µM (inactive) throughout. Besides, the GI50 with CCRF-CEM was 55.5 µM (inactive); in the assay with HT-29, > 100 µM (inactive); in the assay with 786-0 it was > 100 µM (inactive); in the assay with HOP-92, > 100 µM (inactive); in the assay with HCT-116, > 100 µM (inactive); with Hs-578T it was > 100 µM (inactive). In addition, the GI50 with A498, in the assay on MCF7, in the assay with U-251, with COLO 205, with DU-145 and in the assay on SF-295 was > 100 µM (inactive) each time. In addition, the GI50 with OVCAR-5 is > 100 µM (inactive).

On to `Nc1nccc(Nc2ccc(S(N)(=O)=O)cc2)n1`, for which the GI50 in the assay on BT-549, in the assay with SF-268, in the assay on RPMI-8226, with ACHN, in the assay with SNB-19 and with TK-10 was > 100 µM (inactive) throughout. The GI50 with CCRF-CEM, in the assay with HT-29, in the assay on 786-0, in the assay with HOP-92, with HCT-116 and in the assay on Hs-578T was > 100 µM (inactive) in each case. Further, the GI50 in the assay on A498, with MCF7, with U-251, in the assay with COLO 205, in the assay on DU-145 and in the assay with SF-295 was > 100 µM (inactive) each time. For the same compound, in the assay on OVCAR-5, the GI50 is > 100 µM (inactive).
